# Test results as given in the supplement of paper PMC10307832.
# How the values were obtained:
# Assay in all cases: relative viability (nuclei count vs DMSO), 5 days (fraction); higher = more cells survive
# [1] = compound: C=CCn1c(=O)c2cnc(Nc3ccc(N4CCN(C)CC4)cc3)nc2n1-c1cccc(C(C)(C)O)n1 [Adavosertib] + CC(=O)c1c(C)c2cnc(Nc3ccc(N4CCNCC4)cn3)nc2n(C2CCCC2)c1=O [Palbociclib] (partner 0.5 µM)
# Outline: (§1)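 Values are medians from duplicate plates. Each reflects relative viability, defined as the nuclei count of treated wells over that of vehicle wells. Lung cancer cell lines in 1536-well plates were pin-tool dosed one day after seeding with one drug alone or with a fixed anchor-drug dose plus five library-drug doses (not always all listed) in √10 steps, then fixed, stained and imaged at 4× after 5 days.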
# Nelarabine + Navitoclax = compound: COc1nc(N)nc2c1ncn2[C@@H]1O[C@H](CO)[C@@H](O)[C@@H]1O [Nelarabine] + CC1(C)CCC(c2ccc(Cl)cc2)=C(CN2CCN(c3ccc(C(=O)NS(=O)(=O)c4ccc(N[C@H](CCN5CCOCC5)CSc5ccccc5)c(S(=O)(=O)C(F)(F)F)c4)cc3)CC2)C1 [Navitoclax] (partner 0.5 µM)
# Outline: as §1
# Nelarabine + Linsitinib = compound: COc1nc(N)nc2c1ncn2[C@@H]1O[C@H](CO)[C@@H](O)[C@@H]1O [Nelarabine] + C[C@]1(O)C[C@@H](c2nc(-c3ccc4ccc(-c5ccccc5)nc4c3)c3c(N)nccn32)C1 [Linsitinib] (partner 1 µM)
# Outline: as §1
# Nelarabine + Olaparib = compound: COc1nc(N)nc2c1ncn2[C@@H]1O[C@H](CO)[C@@H](O)[C@@H]1O [Nelarabine] + O=C(c1cc(Cc2n[nH]c(=O)c3ccccc23)ccc1F)N1CCN(C(=O)C2CC2)CC1 [Olaparib] (partner 8 µM)
# Outline: as §1
cell line,measurement,setting,value
EMC-BAC-2,relative viability,[1]; first compound 0.03162 µM,0.542
same,relative viability,[1]; first compound 0.1 µM,0.516
same,relative viability,[1]; first compound 0.3162 µM,0.487
same,relative viability,Nelarabine + Navitoclax; first compound 0.01 µM,1.45
same,relative viability,Nelarabine + Navitoclax; first compound 0.03162 µM,1.11
same,relative viability,Nelarabine + Navitoclax; first compound 0.1 µM,1.25
same,relative viability,Nelarabine + Navitoclax; first compound 0.3162 µM,1.38
same,relative viability,Nelarabine + Navitoclax; first compound 1 µM,1.16
same,relative viability,Nelarabine + Linsitinib; first compound 0.01 µM,0.958
same,relative viability,Nelarabine + Linsitinib; first compound 0.03162 µM,0.781
same,relative viability,Nelarabine + Linsitinib; first compound 0.1 µM,0.83
same,relative viability,Nelarabine + Linsitinib; first compound 0.3162 µM,0.831
same,relative viability,Nelarabine + Linsitinib; first compound 1 µM,0.859
same,relative viability,Nelarabine + Olaparib; first compound 0.01 µM,0.538
same,relative viability,Nelarabine + Olaparib; first compound 0.03162 µM,0.432
same,relative viability,Nelarabine + Olaparib; first compound 0.1 µM,0.486
same,relative viability,Nelarabine + Olaparib; first compound 0.3162 µM,0.529
same,relative viability,Nelarabine + Olaparib; first compound 1 µM,0.553
